Substitutions are numbered along the chain they refer to.
What was measured:
[1] = biological target: T1, RhOpn5 (Rimicaris hybisae, UniProt Z9SF72QZI5); assay: absorption spectroscopy and HPLC of retinal in purified pigment; format: biochemical; conditions: covalent (Schiff base, Lys296); photoproduct under yellow light (>480 nm); 0 °C
T1 construct: 178 C-terminal residues truncated, C-terminal Rho1D4 tag (ETSQVAPA), human-codon optimized, HEK293T; transcriptome reads SRA SRP339896
T1 sequence (Z9SF72QZI5 1-407): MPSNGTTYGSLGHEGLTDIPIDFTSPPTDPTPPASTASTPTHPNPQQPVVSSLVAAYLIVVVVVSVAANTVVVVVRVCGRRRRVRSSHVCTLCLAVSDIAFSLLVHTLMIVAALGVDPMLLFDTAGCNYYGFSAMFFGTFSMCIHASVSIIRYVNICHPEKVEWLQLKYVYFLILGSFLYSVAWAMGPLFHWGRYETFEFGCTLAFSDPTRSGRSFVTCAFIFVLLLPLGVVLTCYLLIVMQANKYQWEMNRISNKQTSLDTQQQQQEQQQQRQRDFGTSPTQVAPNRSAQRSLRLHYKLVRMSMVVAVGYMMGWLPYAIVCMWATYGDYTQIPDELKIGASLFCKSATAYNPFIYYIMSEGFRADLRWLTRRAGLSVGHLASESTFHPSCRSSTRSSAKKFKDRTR

[2] = biological target: T2, RhPeropsin (Rimicaris hybisae, UniProt Z9VFR8UU34); assay: as above; format: biochemical; conditions: covalent (Schiff base, Lys296); dark state; photoisomerized under yellow light (>500 nm); 0 °C
T2 construct: C-terminal Rho1D4 tag (ETSQVAPA), human-codon optimized, expressed in HEK293T, no truncation stated; transcriptome reads SRA SRP339896
T2 sequence (Z9VFR8UU34 1-341): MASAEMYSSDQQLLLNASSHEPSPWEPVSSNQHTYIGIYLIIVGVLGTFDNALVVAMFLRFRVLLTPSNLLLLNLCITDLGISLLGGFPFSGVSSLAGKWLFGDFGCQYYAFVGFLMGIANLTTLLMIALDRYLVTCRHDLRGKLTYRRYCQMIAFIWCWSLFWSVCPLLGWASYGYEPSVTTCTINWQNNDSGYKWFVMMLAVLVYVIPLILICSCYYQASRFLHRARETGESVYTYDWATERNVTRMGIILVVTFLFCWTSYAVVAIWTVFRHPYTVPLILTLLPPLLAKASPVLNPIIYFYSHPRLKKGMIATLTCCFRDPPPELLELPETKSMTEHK

[3] = biological target: T3, RhOpn5 (Rimicaris hybisae, UniProt Z9SF72QZI5); assay: UV-visible absorption spectroscopy of purified pigment; format: binding; conditions: covalent (Schiff base, Lys296); pH 8.0 and 6.5; 0 °C; mutation in bovine rhodopsin numbering
T3 construct: 178 C-terminal residues truncated, C-terminal Rho1D4 tag (ETSQVAPA), human-codon optimized, HEK293T; transcriptome reads SRA SRP339896
T3 sequence (Z9SF72QZI5 1-407 E336Q): T1 sequence (Z9SF72QZI5 1-407) with E336Q

[4] = biological target: T2, RhPeropsin; assay: HPLC of retinal isomers after irradiation; format: biochemical; conditions: covalent (Schiff base, Lys296); photoproduct under yellow light (>500 nm); 0 °C
[5] = biological target: T1, RhOpn5; assay: absorption spectroscopy and HPLC of retinal in purified pigment; format: binding; conditions: covalent (Schiff base, Lys296); dark state; 0 °C
[6] = biological target: T4, RhOpn5 (Rimicaris hybisae, UniProt Z9SF72QZI5, D98N, form not given); assay: UV-visible absorption spectroscopy of purified pigment; format: binding; conditions: covalent (Schiff base, Lys296); pH 8.0 and 6.5; 0 °C; mutation in bovine rhodopsin numbering; counterion mutant
T4 construct: 178 C-terminal residues truncated, C-terminal Rho1D4 tag (ETSQVAPA), human-codon optimized, HEK293T; transcriptome reads SRA SRP339896
T4 sequence (Z9SF72QZI5 1-407 D98N): T1 sequence (Z9SF72QZI5 1-407) with D98N

[7] = biological target: T5, RhOpn5 (Rimicaris hybisae, UniProt Z9SF72QZI5, E196Q, form not given); assay: as above; format: binding; conditions: covalent (Schiff base, Lys296); pH 8.0 and 6.5; 0 °C; mutation in bovine rhodopsin numbering
T5 construct: 178 C-terminal residues truncated, C-terminal Rho1D4 tag (ETSQVAPA), human-codon optimized, HEK293T; transcriptome reads SRA SRP339896
T5 sequence (Z9SF72QZI5 1-407 E196Q): T1 sequence (Z9SF72QZI5 1-407) with E196Q

[8] = biological target: T6, RhOpn5 (Rimicaris hybisae, UniProt Z9SF72QZI5, E199Q, form not given); assay: as above; format: binding; conditions: covalent (Schiff base, Lys296); pH 8.0 and 6.5; 0 °C; mutation in bovine rhodopsin numbering
T6 construct: 178 C-terminal residues truncated, C-terminal Rho1D4 tag (ETSQVAPA), human-codon optimized, HEK293T; transcriptome reads SRA SRP339896
T6 sequence (Z9SF72QZI5 1-407 E199Q): T1 sequence (Z9SF72QZI5 1-407) with E199Q

Compound	absorption spectroscopy and HPLC of retinal in purified pigment [1]	absorption spectroscopy and HPLC of retinal in purified pigment [2]	UV-visible absorption spectroscopy of purified pigment [3]	HPLC of retinal isomers after irradiation [4]	absorption spectroscopy and HPLC of retinal in purified pigment [5]	UV-visible absorption spectroscopy of purified pigment [6]	UV-visible absorption spectroscopy of purified pigment [7]	UV-visible absorption spectroscopy of purified pigment [8]
CC1=C(/C=C/C(C)=C/C=C/C(C)=C/C=O)C(C)(C)CCC1 [all-trans-retinal]	accompanied by the conversion from 11-cis- to all-trans-retinal	RhPeropsin exclusively binds all-trans-retinal in the dark and produces 11-cis-retinal from all-trans-retinal	–	–	–	–	–	–
CC1=C(/C=C/C(C)=C/C=C\C(C)=C\C=O)C(C)(C)CCC1 [11-cis-retinal]	–	–	the E179Q, E182Q, and E286Q mutants did not show pH-dependent spectral changes	RhPeropsin converts all-trans-retinal to 11-cis-retinal upon visible light absorption	RhOpn5 forms a blue light–sensitive pigment binding 11-cis-retinal in the resting state	the D83N mutant showed a significant pH-dependent change, with a small peak in the visible	the E179Q, E182Q, and E286Q mutants did not show pH-dependent spectral changes	the E179Q, E182Q, and E286Q mutants did not show pH-dependent spectral changes

Source: paper PMC12221356, “A repertoire of visible light–sensitive opsins in the deep-sea hydrothermal vent shrimp Rimicaris hybisae” (The Journal of Biological Chemistry, 2025)
